Measured values taken from patent EP0856511B1, “Calcium salt of indomethacin pentahydrate and its preparation” (Promindus (Actions Promotionnelles dans l'Industrie et le …, priority 1997, dated 1998).

Tests used:
[1] = Effective dose 50 % (DE50) per os in the rat; assay type: in vivo
Text: (§1) En effet, les comparaisons respectives des DE50 (dose efficace 50 %) et DL50 (dose léthale 50 %) per os, chez le rat, de ladite indométacine calcique pentahydratée et de ladite indométacine libre sont nettement à l'avantage de ladite indométacine calcique.

[2] = Lethal dose 50 % (DL50) per os in the rat; assay type: in vivo
Text: as §1

[3] = in vivo
[4] = Solubility description in water and organic solvents; assay type: physicochemical

Row | Molecule | ED50 ([1]; po, dose efficace 50 %, per os, rat) [mg/kg] | LD50 ([2]; in vivo, po, dose léthale 50 %, per os, rat) [mg/kg] | tolérance locale par voie rectale [3] | activité pharmacologique ([1]; compared with the acid form) | DE50 ([1]; dose efficace 50 %, per os, rat) | DL50 ([2]; dose léthale 50 %, per os, rat) [mg/kg] | toxicité par voie orale ([2]; par voie orale, compared with the acid form) | Index thérapeutique : DL50/DE50 ([2]; per os, rat, ratio DL50/DE50) | solubilité dans l'acétonitrile [4] | solubilité dans l'eau [4] | solubilité dans l'éther [4] | solubilité dans le chloroforme ([4]; chloroforme) | solubilité dans le diméthylformamide ([4]; diméthylformamide) | solubilité dans le tétrahydrofuranne ([4]; tétrahydrofuranne)
1 | COc1ccc2c(c1)c(CC(=O)O)c(C)n2C(=O)c1ccc(Cl)cc1 [Indométacine, acide 1-(p-chlorobenzoyl)-5-méthoxy-2-méthylindole-3-acétique, reference compound] | 3 | 28 |  |  |  |  |  |  |  |  |  |  |  | 
2 | indométacine calcique pentahydratée |  |  | une meilleure tolérance locale | équivalente | 2,5 mg/kg | 45 | une toxicité diminuée | 18 | pratiquement insoluble | pratiquement insoluble | pratiquement insoluble | pratiquement insoluble | facilement soluble | soluble
